Source: the supplement of paper PMC13380429

What was measured:
[1] = tested on: A549-ACE2 infected with SARS-CoV-2; assay: SARS-CoV-2 infection rate relative to DMSO; higher = more infection; details: 24 h
[2] = tested on: A549-ACE2 infected with SARS-CoV-2; assay: morphology score (similarity to uninfected cells); higher = more like uninfected cells; details: 24 h
[3] = tested on: A549-ACE2 infected with SARS-CoV-2; assay: cell count relative to DMSO; higher = less toxic; details: 24 h
[4] = tested on: A549-ACE2; assay: drug-induced phospholipidosis relative to tamoxifen; higher = more phospholipidosis
[5] = tested on: U2OS; assay: drug sensitivity score (DSS) for viability; higher = more toxic; extreme values may be limits of the assay; details: 72 h
[6] = tested on: Calu-3; assay: as above; details: 72 h
[7] = tested on: Vero E6; assay: as above; details: 72 h
[8] = tested on: HepG2; assay: as above; details: 72 h
[9] = tested on: Caco-2; assay: as above; details: 72 h
[10] = tested on: A549-ACE2; assay: phospholipidosis EC50; higher = less potent phospholipidosis inducer
[11] = tested on: U2OS; assay: relative viability EC50 (midpoint between 100% and the lowest measured viability); higher = less toxic; details: 72 h
[12] = tested on: Calu-3; assay: as above; details: 72 h
[13] = tested on: Vero E6; assay: as above; details: 72 h
[14] = tested on: Caco-2; assay: as above; details: 72 h
[15] = tested on: U2OS; assay: cell viability relative to DMSO; higher = less toxic; details: 72 h
[16] = tested on: Calu-3; assay: as above; details: 72 h
[17] = tested on: Vero E6; assay: as above; details: 72 h
[18] = tested on: HepG2; assay: as above; details: 72 h
[19] = tested on: Caco-2; assay: as above; details: 72 h
[20] = tested on: HepG2; assay: relative viability EC50 (midpoint between 100% and the lowest measured viability); higher = less toxic; details: 72 h

For `COc1ccc(/C=C/C(=O)/C=C(O)/C=C/c2ccc(OC)c(OC)c2)cc1OC` [ASC-J9], the SARS-CoV-2 infection rate ([1]; 0.3 µM) was 98%, the SARS-CoV-2 infection rate ([1]; 3 µM) was 97% and the SARS-CoV-2 infection rate ([1]; 10 µM) was 87%. The SARS-CoV-2 infection rate ([1]; 30 µM) was 25%, the morphology score ([2]; 0.3 µM) was 0.01 and the morphology score ([2]; 3 µM) was -0.06. It also gave a morphology score ([2]; 10 µM) of 0.39, a morphology score ([2]; 30 µM) of 0.56 and a cell count ([3]; 0.3 µM) of 100%. It also gave a cell count ([3]; 3 µM) of 101%, a cell count ([3]; 10 µM) of 98% and a cell count ([3]; 30 µM) of 70%. For the same compound, the drug-induced phospholipidosis ([4]; 0.3 µM, 24 h) was 0.46%, the drug-induced phospholipidosis ([4]; 0.3 µM, 48 h) was 1.84% and the drug-induced phospholipidosis ([4]; 0.3 µM, 72 h) was 4.19%. It also gave a drug-induced phospholipidosis ([4]; 0.833333 µM, 24 h) of -1.23%, a drug-induced phospholipidosis ([4]; 0.833333 µM, 48 h) of -1.1% and a drug-induced phospholipidosis ([4]; 0.833333 µM, 72 h) of -0.9%. The drug-induced phospholipidosis ([4]; 3.33333 µM, 24 h) was 4.99%, the drug-induced phospholipidosis ([4]; 3.33333 µM, 48 h) was 1.58% and the drug-induced phospholipidosis ([4]; 3.33333 µM, 72 h) was 1.28%. The drug-induced phospholipidosis ([4]; 6.66667 µM, 24 h) was 24.2%, the drug-induced phospholipidosis ([4]; 6.66667 µM, 48 h) was 8.23% and the drug-induced phospholipidosis ([4]; 6.66667 µM, 72 h) was 7.61%. The drug-induced phospholipidosis ([4]; 10 µM, 24 h) was 40.1%, the drug-induced phospholipidosis ([4]; 10 µM, 48 h) was 13.3% and the drug-induced phospholipidosis ([4]; 10 µM, 72 h) was 9.79%. For the same compound, the drug-induced phospholipidosis ([4]; 30 µM, 24 h) was 139%, the drug-induced phospholipidosis ([4]; 30 µM, 48 h) was 45.5% and the drug-induced phospholipidosis ([4]; 30 µM, 72 h) was 37.4%. It also gave a drug sensitivity score [5] of 4.3, a drug sensitivity score [6] of 0.3 and a drug sensitivity score [7] of 0. For the same compound, the drug sensitivity score [8] was 3, the drug sensitivity score [9] was 2.9 and the “phospholipidosis EC50” value ([10]; 24 h) was 20 µM. For the same compound, the “relative viability EC50” value [11] was 2.98 µM, the “relative viability EC50” value [12] was greater than 10 µM and the “relative viability EC50” value [13] was greater than 10 µM. For the same compound, the “relative viability EC50” value [14] was 3.19 µM, the cell viability ([15]; 1 nM) was 96.1% and the cell viability ([15]; 10 nM) was 97.5%. It also gave a cell viability ([15]; 100 nM) of 95.3%, a cell viability ([15]; 1000 nM) of 98.1% and a cell viability ([15]; 10000 nM) of 26.5%. It also gave a cell viability ([16]; 1 nM) of 96.5%, a cell viability ([16]; 10 nM) of 94.9% and a cell viability ([16]; 100 nM) of 110%. For the same compound, the cell viability ([16]; 1000 nM) was 108%, the cell viability ([16]; 10000 nM) was 81.9% and the cell viability ([17]; 1 nM) was 99.2%. For the same compound, the cell viability ([17]; 10 nM) was 93.9%, the cell viability ([17]; 100 nM) was 103% and the cell viability ([17]; 1000 nM) was 101%. For the same compound, the cell viability ([17]; 10000 nM) was 103%, the cell viability ([18]; 1 nM) was 118% and the cell viability ([18]; 10 nM) was 106%. For the same compound, the cell viability ([18]; 100 nM) was 111%, the cell viability ([18]; 1000 nM) was 95.4% and the cell viability ([18]; 10000 nM) was 55.8%. For the same compound, the cell viability ([19]; 1 nM) was 90.7%, the cell viability ([19]; 10 nM) was 92.8% and the cell viability ([19]; 100 nM) was 92.9%. For the same compound, the cell viability ([19]; 1000 nM) was 100% and the cell viability ([19]; 10000 nM) was 45.2%.
With `O=C(OC(C(F)(F)F)C(F)(F)F)N1CCN(Cc2cccc(Oc3ccccc3)c2)CC1` [JW-642] the SARS-CoV-2 infection rate ([1]; 0.3 µM) was 100%, the SARS-CoV-2 infection rate ([1]; 3 µM) was 88% and the SARS-CoV-2 infection rate ([1]; 10 µM) was 99%. The SARS-CoV-2 infection rate ([1]; 30 µM) was 90%, the morphology score ([2]; 0.3 µM) was -0.02 and the morphology score ([2]; 3 µM) was 0.31. It also gave a morphology score ([2]; 10 µM) of -0.04, a morphology score ([2]; 30 µM) of 0.29 and a cell count ([3]; 0.3 µM) of 103%. The cell count ([3]; 3 µM) was 111%, the cell count ([3]; 10 µM) was 105% and the cell count ([3]; 30 µM) was 105%. For the same compound, the drug-induced phospholipidosis ([4]; 0.3 µM, 24 h) was 6.56%, the drug-induced phospholipidosis ([4]; 0.3 µM, 48 h) was 5.07% and the drug-induced phospholipidosis ([4]; 0.3 µM, 72 h) was 4.87%. It also gave a drug-induced phospholipidosis ([4]; 0.833333 µM, 24 h) of 21.9%, a drug-induced phospholipidosis ([4]; 0.833333 µM, 48 h) of 23.9% and a drug-induced phospholipidosis ([4]; 0.833333 µM, 72 h) of 23.8%. It also gave a drug-induced phospholipidosis ([4]; 3.33333 µM, 24 h) of 39.6%, a drug-induced phospholipidosis ([4]; 3.33333 µM, 48 h) of 54.4% and a drug-induced phospholipidosis ([4]; 3.33333 µM, 72 h) of 62.1%. It also gave a drug-induced phospholipidosis ([4]; 6.66667 µM, 24 h) of 46.5%, a drug-induced phospholipidosis ([4]; 6.66667 µM, 48 h) of 65.2% and a drug-induced phospholipidosis ([4]; 6.66667 µM, 72 h) of 70.4%. The drug-induced phospholipidosis ([4]; 10 µM, 24 h) was 46.2%, the drug-induced phospholipidosis ([4]; 10 µM, 48 h) was 57.8% and the drug-induced phospholipidosis ([4]; 10 µM, 72 h) was 64.8%. It also gave a drug-induced phospholipidosis ([4]; 30 µM, 24 h) of 54.6%, a drug-induced phospholipidosis ([4]; 30 µM, 48 h) of 68.1% and a drug-induced phospholipidosis ([4]; 30 µM, 72 h) of 73.8%. The drug sensitivity score [5] was 0, the drug sensitivity score [7] was 0 and the drug sensitivity score [8] was 0. The drug sensitivity score [9] was 0, the “phospholipidosis EC50” value ([10]; 24 h) was 0.723 µM and the “phospholipidosis EC50” value ([10]; 48 h) was 1.17 µM. For the same compound, the “phospholipidosis EC50” value ([10]; 72 h) was 1.22 µM, the “relative viability EC50” value [11] was greater than 10 µM and the “relative viability EC50” value [13] was greater than 10 µM. The “relative viability EC50” value [20] was greater than 10 µM, the “relative viability EC50” value [14] was greater than 10 µM and the cell viability ([15]; 1 nM) was 101%. For the same compound, the cell viability ([15]; 10 nM) was 98.1%, the cell viability ([15]; 100 nM) was 102% and the cell viability ([15]; 1000 nM) was 95.7%. It also gave a cell viability ([15]; 10000 nM) of 97.6%, a cell viability ([17]; 1 nM) of 93.1% and a cell viability ([17]; 10 nM) of 106%. It also gave a cell viability ([17]; 100 nM) of 96.3%, a cell viability ([17]; 1000 nM) of 90.5% and a cell viability ([17]; 10000 nM) of 102%. For the same compound, the cell viability ([18]; 1 nM) was 100%, the cell viability ([18]; 10 nM) was 116% and the cell viability ([18]; 100 nM) was 87.7%. For the same compound, the cell viability ([18]; 1000 nM) was 109%, the cell viability ([18]; 10000 nM) was 101% and the cell viability ([19]; 1 nM) was 98.3%. The cell viability ([19]; 10 nM) was 106%, the cell viability ([19]; 100 nM) was 99.4% and the cell viability ([19]; 1000 nM) was 100%. For the same compound, the cell viability ([19]; 10000 nM) was 92.4%.
